Measured values from PubChem BioAssay AID330 (DTP/NCI, 2004).
Several values for one entry are separate records, joined by “and”; a condition that tells them apart may be missing. Equal entries are not always repeated. Toxic doses and inconclusive results are not listed. The calls were made as follows: active = survival T/C of 150% or more; inactive = T/C below 125% in these data.

Tested on: P388 leukemia ip, CD2F1 mice, survival T/C
Assay: NCI In Vivo Anticancer Drug Screen. Data for tumor model P388 Leukemia (intraperitoneal) in CD2F1 (CDF1) mice
Conditions: endpoint: median survival time, higher = longer survival
How it was run: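 Mice carrying the transplanted tumor received test compound or vehicle. Survival was recorded in each group, and the value is the treated-group measurement divided by that of the vehicle-treated control group.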

[1] = dose: 60.0 mg/kg/injection, schedule: Q01DX005 (ip), vehicle: Klucel (hydroxypropylcellulose) (HPC)
[2] = dose: 25.0 mg/kg/injection, schedule: Q01DX005 (ip), vehicle: saline
[3] = dose: 50.0 mg/kg/injection, schedule: Q01DX005 (ip), vehicle: saline
[4] = dose: 100.0 mg/kg/injection, schedule: Q01DX005 (ip), vehicle: saline
[5] = dose: 200.0 mg/kg/injection, schedule: Q01DX005 (ip), vehicle: saline
[6] = dose: 12.5 mg/kg/injection, schedule: Q01DX009 (ip), vehicle: saline with Tween-80
[7] = dose: 25.0 mg/kg/injection, schedule: Q01DX009 (ip), vehicle: saline with Tween-80
[8] = dose: 50.0 mg/kg/injection, schedule: Q01DX009 (ip), vehicle: saline with Tween-80
[9] = dose: 100.0 mg/kg/injection, schedule: Q04DX002 (ip), vehicle: Klucel (hydroxypropylcellulose) (HPC)
[10] = dose: 60.0 mg/kg/injection, schedule: Q01DX005 (ip), vehicle: saline with Tween-80
[11] = dose: 120.0 mg/kg/injection, schedule: Q01DX005 (ip), vehicle: saline with Tween-80
[12] = dose: 240.0 mg/kg/injection, schedule: Q01DX005 (ip), vehicle: saline with Tween-80
[13] = dose: 100.0 mg/kg/injection, schedule: Q01DX009 (ip), vehicle: saline with Tween-80
[14] = dose: 200.0 mg/kg/injection, schedule: Q01DX009 (ip), vehicle: saline with Tween-80
[15] = dose: 50.0 mg/kg/injection, schedule: Q01DX005 (ip), vehicle: saline with Tween-80
[16] = dose: 100.0 mg/kg/injection, schedule: Q01DX005 (ip), vehicle: saline with Tween-80
[17] = dose: 200.0 mg/kg/injection, schedule: Q01DX005 (ip), vehicle: saline with Tween-80

Measured: T/C

CC(C)COCC1COC2(OCC(C)(C)C2OC(=O)Nc2ccccc2)O1 (stereo not drawn)
inactive: [1] 95 % of control | dose: 120.0 mg/kg/injection, schedule: Q01DX005 (ip), vehicle: Klucel (hydroxypropylcellulose) (HPC) 94 % of control | dose: 240.0 mg/kg/injection, schedule: Q01DX005 (ip), vehicle: Klucel (hydroxypropylcellulose) (HPC) 91 % of control

CC(NC(=O)CNC(=O)CN)C(=O)O (stereo not drawn)
inactive: [2] 102 % of control | [3] 92 % of control | [4] 94 % of control | [5] 94 % of control

COC1OC(=O)C(Cl)=C1N=[N+]=[N-] (stereo not drawn)
inactive: dose: 15.0 mg/kg/injection, schedule: Q01DX005 (ip), vehicle: Klucel (hydroxypropylcellulose) (HPC) 105 % of control | dose: 30.0 mg/kg/injection, schedule: Q01DX005 (ip), vehicle: Klucel (hydroxypropylcellulose) (HPC) 102 % of control | [1] 109 % of control

CC(C)(C)N=C(CCN1CCN(CCC(=NC(C)(C)C)Nc2ccc([N+](=O)[O-])cc2)CC1)Nc1ccc([N+](=O)[O-])cc1
inactive: [6] 92 % of control | [7] 96 % of control | dose: 50.0 mg/kg/injection, schedule: Q01DX009 (ip), vehicle: Klucel (hydroxypropylcellulose) (HPC) 87 % of control | [8] 91 % of control | dose: 200.0 mg/kg/injection, schedule: Q01DX009 (ip), vehicle: Klucel (hydroxypropylcellulose) (HPC) 93 % of control

O=C([O-])c1ccccc1[O-].[Cu+2].c1cnc2c(c1)ccc1cccnc12
inactive: [9] 109 % of control

Clc1ccc(CNc2ncnc3[nH]ncc23)cc1Cl
inactive: dose: 100.0 mg/kg/injection, schedule: Q04DX003 (ip), vehicle: saline with Tween-80 104 % of control | dose: 200.0 mg/kg/injection, schedule: Q04DX003 (ip), vehicle: saline with Tween-80 100 % of control | dose: 400.0 mg/kg/injection, schedule: Q04DX003 (ip), vehicle: saline with Tween-80 95 % of control

O=C(c1cc2c(cc1Br)OCO2)N1CCc2ccccc21
inactive: dose: 50.0 mg/kg/injection, schedule: Q01DX009 (ip), vehicle: other 93 % of control | dose: 100.0 mg/kg/injection, schedule: Q01DX009 (ip), vehicle: other 105 % of control | dose: 200.0 mg/kg/injection, schedule: Q01DX009 (ip), vehicle: other 109 % of control

NC(=S)N/N=C/C=C/c1ccccc1
inactive: dose: 25.0 mg/kg/injection, schedule: Q04DX002 (ip), vehicle: Klucel (hydroxypropylcellulose) (HPC) 96 % of control | dose: 50.0 mg/kg/injection, schedule: Q04DX002 (ip), vehicle: Klucel (hydroxypropylcellulose) (HPC) 105 % of control | [9] 101 % of control

CC1(C)CC(=O)C=C(NCCO)C1
inactive: [3] 96 % of control | [4] 91 % of control | [5] 96 % of control

C=C1C(=O)OC2C1C(OC(=O)/C(C)=C/C)CC1(COC(O)C1)C2C(=C)C (stereo not drawn)
inactive: dose: 2.5 mg/kg/injection, schedule: Q01DX009 (ip), vehicle: saline + alcohol 107 % of control | dose: 5.0 mg/kg/injection, schedule: Q01DX009 (ip), vehicle: saline + alcohol 118 % of control | dose: 10.0 mg/kg/injection, schedule: Q01DX009 (ip), vehicle: saline + alcohol 109 % of control | dose: 20.0 mg/kg/injection, schedule: Q01DX009 (ip), vehicle: saline + alcohol 100 % of control

CCOc1c(N=Nc2cccc(Cl)c2)c(C)nn1C(N)=S
inactive: dose: 60.0 mg/kg/injection, schedule: Q01DX005 (ip), vehicle: Klucel + Tween-80 102 % of control | dose: 120.0 mg/kg/injection, schedule: Q01DX005 (ip), vehicle: Klucel + Tween-80 93 % of control | dose: 240.0 mg/kg/injection, schedule: Q01DX005 (ip), vehicle: Klucel + Tween-80 95 % of control

O=C(NCc1ccco1)Nc1c(Cl)cc(Cl)cc1Cl
inactive: [10] 103 % of control | [11] 100 % of control | [12] 100 % of control

NS(=O)(=O)/C(Br)=C/c1ccccc1
inactive: [8] 90 % of control | [13] 118 % of control | [14] 98 % of control

CC(C)(C)C(N)=S
inactive: [3] 103 % of control | [4] 101 % of control | [5] 101 % of control

O=C(CSc1nnc(-c2ccc(Cl)cc2)s1)Nc1nccs1
inactive: [10] 89 % of control | [11] 89 % of control | [12] 89 % of control

CN(C)c1ccc(C2(C(=O)O)CCCC(C)(C)C2)cc1 (stereo not drawn)
inactive: dose: 100.0 mg/kg/injection, schedule: Q01DX001 (ip), vehicle: Klucel (hydroxypropylcellulose) (HPC) 95 % of control | dose: 200.0 mg/kg/injection, schedule: Q01DX001 (ip), vehicle: Klucel (hydroxypropylcellulose) (HPC) 95 % of control | dose: 400.0 mg/kg/injection, schedule: Q01DX001 (ip), vehicle: Klucel (hydroxypropylcellulose) (HPC) 92 % of control

O=C1OC(Oc2ccccc2OC2OC(=O)c3ccccc32)c2ccccc21 (stereo not drawn)
inactive: [10] 98 % of control | [11] 106 % of control | [12] 100 % of control

CC(c1ccc(N2Cc3ccccc3C2=O)cc1)C(O)C(N)=O (stereo not drawn)
inactive: [15] 89 % of control | [16] 92 % of control | [17] 89 % of control

CC(C)(C)C1=CC(=CC=C2C=CN(CCO)C=C2)C=C(C(C)(C)C)C1=O
inactive: dose: 7.5 mg/kg/injection, schedule: Q01DX005 (ip), vehicle: saline with Tween-80 105 % of control | dose: 15.0 mg/kg/injection, schedule: Q01DX005 (ip), vehicle: saline with Tween-80 98 % of control | dose: 30.0 mg/kg/injection, schedule: Q01DX005 (ip), vehicle: saline with Tween-80 104 % of control

CC(O)CN1C(=O)c2cccc3cc([N+](=O)[O-])cc(c23)C1=O (stereo not drawn)
inactive: [15] 96 % of control | [16] 104 % of control | [17] 104 % of control

O=C1NC(=O)C2C(=O)NC(=O)C1C21CCc2ccccc21 (stereo not drawn)
inactive: [10] 97 % of control | [11] 86 % of control

C[N+](C)=c1ccc2nc3c(ccc4ccccc43)oc-2c1
inactive: dose: 3.12 mg/kg/injection, schedule: Q01DX005 (ip), vehicle: saline with Tween-80 105 % of control | dose: 6.25 mg/kg/injection, schedule: Q01DX005 (ip), vehicle: saline with Tween-80 105 % of control | dose: 12.5 mg/kg/injection, schedule: Q01DX005 (ip), vehicle: saline with Tween-80 103 % of control

c1ncn(C23CC4CC(CC(C4)C2)C3)n1
inactive: dose: 1.56 mg/kg/injection, schedule: Q01DX001 (ip), vehicle: Klucel (hydroxypropylcellulose) (HPC) 106 % of control | dose: 3.12 mg/kg/injection, schedule: Q01DX001 (ip), vehicle: Klucel (hydroxypropylcellulose) (HPC) 104 % of control | dose: 6.25 mg/kg/injection, schedule: Q01DX001 (ip), vehicle: Klucel (hydroxypropylcellulose) (HPC) 107 % of control and 96 % of control

CNP1(NC)=NP(NC)(NC)=NP(NC)(NC)=NP(NC)(NC)=N1
inactive: [3] 115 % of control | [4] 110 % of control | [5] 104 % of control

COc1ccc(-c2cc[n+]([O-])c(C)c2C)c(OC)c1OC
inactive: [8] 94 % of control | [13] 96 % of control | [14] 92 % of control

OC(COc1cccc(C(F)(F)F)c1)CN1CCN(c2ccc(F)cc2)CC1 (stereo not drawn)
inactive: [6] 100 % of control | dose: 25.0 mg/kg/injection, schedule: Q01DX009 (ip), vehicle: distilled water + Tween-80 106 % of control | [7] 106 % of control | dose: 50.0 mg/kg/injection, schedule: Q01DX009 (ip), vehicle: distilled water + Tween-80 108 % of control | [8] 124 % of control

CC1(C)N=C(N)N=C(N)N1c1ccc(Cl)cc1
inactive: dose: 12.5 mg/kg/injection, schedule: Q01DX005 (ip), vehicle: saline 103 % of control | [2] 117 % of control | [3] 124 % of control

C=C(C)c1c2ccccc2cc2cccc(Sc3ccc(C(C)(C)C)cc3)c12
inactive: dose: 100.0 mg/kg/injection, schedule: Q04DX002 (ip), vehicle: saline with Tween-80 101 % of control | dose: 200.0 mg/kg/injection, schedule: Q04DX002 (ip), vehicle: saline with Tween-80 96 % of control | dose: 400.0 mg/kg/injection, schedule: Q04DX002 (ip), vehicle: saline with Tween-80 92 % of control

Cc1ccc([Se]CCBr)cc1
inactive: dose: 25.0 mg/kg/injection, schedule: Q01DX001 (ip), vehicle: saline 108 % of control | dose: 50.0 mg/kg/injection, schedule: Q01DX001 (ip), vehicle: saline 101 % of control | dose: 100.0 mg/kg/injection, schedule: Q01DX001 (ip), vehicle: saline 96 % of control

N#CC(C#N)=C(O)/C(=C/c1ccccc1[N+](=O)[O-])NC(=O)c1ccccc1
inactive: [10] 106 % of control | [11] 104 % of control | [12] 92 % of control
